Like-named read-outs stand apart in the source and are kept apart here. A value given as a limit tells only on which side of the number the result lay.

As usually defined, the inhibition in vivo is the relative decrease from the control value, in per cent. Lower therefore signals little suppression. What is called inhibition is the relative decrease from the control value, in per cent. Low readings indicate little suppression, high ones strong suppression. As usually defined, the Ki is a dissociation constant, usually derived from enzyme kinetics or from competition with a known ligand. Higher therefore signals lower affinity.

The test system of test [1] is conditioned avoidance responding. The experiment in a line: Conditioned avoidance, shelf-jump response test. Type of test: in vivo, male CD rats (Charles River). The following applies: ip, single dose, rat. An excerpt:
(§1) The antipsychotic properties of the compounds of this invention were established by standard pharmacologically accepted procedures involving conditioned avoidance studies in which trained male CD rats (Charles River), 400-450 g. body weight are exposed to a fifteen second warning tone (conditioned stimulus) continued for an additional fifteen seconds accompanied by electric shock. The rat can avoid the electric shock by jumping to an exposed shelf (shelf-jump response). A response during the initial warning tone is considered an avoidance response, while a response during shock delivery is considered as escape response. The shelf-jump response test procedure follows that of Herman et al., Comm. in Psychopharm., 3, pp. 165-171 (1979). The compounds of this invention were tested at a single dose (40 mg./kg. i.p.) in this procedure and were rated relative to their inhibition of conditioned avoidance responding. A similar test procedure in which a lever press was substituted for a shelf-jump was used to establish the oral (p.o) activity of the test compounds. Orally active compounds were tested over a full dose range and the Avoidance Block activities reported as "AB50 's" (mg./kg.).

For the next test, the target named is T1, D-2 dopamine receptor (Rattus norvegicus, UniProt P61169).
T1 construct: from tissue; host or cells: limbic brain tissue
As to the kind of experiment: [3H]Spiroperidol binding inhibition, homogenized limbic brain tissue. The source says:
The results of this testing with compounds representative of the invention whose production is exemplified,infra, are as follows: […]

Test [2] addresses T2, 5-HT1A serotonin receptor (Rattus norvegicus, UniProt P19327).
T2 construct: 44: 1685-1696, 1985; from tissue
T2 sequence (P19327 1-422): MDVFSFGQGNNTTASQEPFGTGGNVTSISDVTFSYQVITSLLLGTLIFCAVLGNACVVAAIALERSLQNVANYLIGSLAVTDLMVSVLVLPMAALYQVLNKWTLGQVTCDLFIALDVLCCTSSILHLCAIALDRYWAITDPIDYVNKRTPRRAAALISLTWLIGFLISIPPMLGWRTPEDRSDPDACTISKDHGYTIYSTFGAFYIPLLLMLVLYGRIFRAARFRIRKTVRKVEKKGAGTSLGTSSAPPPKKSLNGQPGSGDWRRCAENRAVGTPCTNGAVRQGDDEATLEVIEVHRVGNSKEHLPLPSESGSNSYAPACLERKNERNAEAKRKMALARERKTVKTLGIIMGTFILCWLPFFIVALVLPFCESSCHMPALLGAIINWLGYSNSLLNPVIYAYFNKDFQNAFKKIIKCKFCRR
The experiment in a line: Inhibition of [3H] 8-OH DPAT binding. Particulars: for Ki / inhibition at 1 µM: 5-HT1A.
Source text: 8-OH DPAT (dipropylaminotetralin) from the 5-HT1A serotonin receptor by the procedure of Hall et al., J. Neurochem.

Test [3] concerns apomorphine-induced stereotyped behavior and climbing. The experiment in a line: Antagonism of apomorphine-induced stereotyped behavior and climbing. The test is classed as in vivo, CF-1 mice (Charles River). The following applies: mice; for ED50: Mus musculus; for ED50 / Apomorphine antagonism ED50, stereotypy / Apomorphine antagonism ED50, climbing: head: p.o. (text: i.p.), apomorphine 1 mg/kg s.c.; for Ratio of the ED50 for stereotyped behavior to the ED50 for climbing: apomorphine-induced stereotypy/climbing.

Test [4] has as its system conditioned avoidance responding. The experiment in a line: Conditioned avoidance, discrete trial (lever press), oral. The test is classed as in vivo, rat. The following applies: for ED50: Rattus norvegicus, po, read-out: Conditioned avoidance, discrete trial AB50 (Avoidance Block); for Conditioned avoidance, discrete trial AB50 (Avoidance Block): p.o.
Source text: as §1

[5] abbreviates: read-out: Apomorphine antagonism ED50, climbing.
The mark [6] stands for this setting: read-out: Apomorphine antagonism ED50, stereotypy.

T1 sequence (P61169 whole entry): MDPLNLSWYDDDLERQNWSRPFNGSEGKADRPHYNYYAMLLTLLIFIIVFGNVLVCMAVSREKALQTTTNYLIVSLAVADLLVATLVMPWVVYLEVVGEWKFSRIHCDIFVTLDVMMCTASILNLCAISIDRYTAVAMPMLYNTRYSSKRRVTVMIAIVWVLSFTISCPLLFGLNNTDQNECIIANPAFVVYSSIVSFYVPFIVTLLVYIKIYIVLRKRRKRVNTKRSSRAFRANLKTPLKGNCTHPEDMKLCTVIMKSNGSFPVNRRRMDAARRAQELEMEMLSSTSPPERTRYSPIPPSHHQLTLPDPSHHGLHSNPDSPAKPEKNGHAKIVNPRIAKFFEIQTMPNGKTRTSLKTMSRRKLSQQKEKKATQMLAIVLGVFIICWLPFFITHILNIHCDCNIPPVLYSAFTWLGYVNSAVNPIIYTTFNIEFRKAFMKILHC

As for `O=C1C2CC(C(=O)N1CCCCN1CCN(c3ncccn3)CC1)C1CCCC21` (centres unmarked) [Example 1, Hexahydro-3-[4-[4-(2-pyrimidinyl)-1-piperazinyl]butyl]-1,5-methanocyclopent[d]azepine-2,4(1H,3H)-dione], the inhibition in vivo at 40 mg/kg in test [1] was > 20%. Moreover, 1 µM produced 54% inhibition at D-2 dopamine receptor. In test [2], this compound returned a Ki of 3 nM. The results for the ED50 in test [3] (setting [5]) and in test [4] were 4.08 mg/kg and 40.1 mg/kg, respectively. The “Apomorphine antagonism ED50, stereotypy” value in test [3] is “inactive”.

As to `O=C1C2CC(C(=O)N1CCCCN1CCN(c3cncc(Cl)n3)CC1)C1CCCC21` (centres unmarked) [Example 2, Hexahydro-3-[4-[4-(6-chloro-2-pyrazinyl)-1-piperazinyl]butyl]-1,5-methanocyclopent[d]azepine-2,4(1H,3H)-dione], in test [1], the inhibition in vivo at 40 mg/kg was > 20%. In addition, the inhibition at 1 µM at D-2 dopamine receptor turned out to be 20%. The compound further gave an inhibition constant (Ki) in test [2] of 31 nM. Also, the ED50 in test [3] (setting [5]) amounted to 24.2 mg/kg. The “Apomorphine antagonism ED50, stereotypy” value in test [3] was “inactive”. Further, the “Conditioned avoidance, discrete trial AB50 (Avoidance Block)” value (from here on “Conditioned avoidance”) in test [4] is “inactive”.

Take `O=C1C2CC(C(=O)N1CCCCN1CCN(c3cnccn3)CC1)C1CCCC21` (centres unmarked) [Example 3, Hexahydro-3-[4-[4-(2-pyrazinyl)-1-piperazinyl]butyl]-1,5-methanocyclopent[d]azepine-2,4(1H,3H)-dione]: in test [1], the inhibition in vivo at 40 mg/kg was ~80%. At 1 µM the inhibition on D-2 dopamine receptor was 23%. The Ki in test [2] came out at 41 nM. Moreover, the ED50 in test [3] (setting [5]) was 4.91 mg/kg; in test [3] (setting [6]) it was 30.9 mg/kg. Besides, the “Conditioned avoidance” value in test [4] is “inactive”.

In the case of `O=C1C2CC(C(=O)N1CCCCN1CCN(c3ncccn3)CC1)C1CC=CC21` (centres unmarked) [Example 4, 5,5a,8,8a-Tetrahydro-3-[4-[4-(2-pyrimidinyl)-1-piperazinyl]butyl]1,5-methanocyclopent[d]azepine-2,4(1H,3H)-dione], the inhibition in vivo at 40 mg/kg in test [1] is ~80%. At D-2 dopamine receptor, 1 µM produced 59% inhibition. The same compound came in with an inhibitory constant (Ki) in test [2] of 3.5 nM. The ED50 in test [3] (setting [5]) was found to be 5.5 mg/kg. For the same compound, the “Apomorphine antagonism ED50, stereotypy” value in test [3] was “inactive”. In addition, the “Conditioned avoidance” value in test [4] was “weak”.

`O=C1C2CC(C(=O)N1CCCCN1CCN(c3cncc(Cl)n3)CC1)C1CC=CC21` (centres unmarked) [Example 5, 5,5a,8,8a-Tetrahydro-3-[4-[4-(6-chloro-2-pyrazinyl)-1-piperazinyl]butyl]-1,5-methanocyclopent[d]azepine-2,4(1H,3H)-dione]: the inhibition in vivo at 40 mg/kg in test [1] was > 20%. For the same compound, the inhibition at 1 µM on D-2 dopamine receptor is 25%. Further, the inhibitory constant (Ki) in test [2] turned out to be 60 nM. Also, the ED50 in test [3] (setting [5]) was determined as 47.2 mg/kg. In test [3], the “Apomorphine antagonism ED50, stereotypy” value is “inactive”. The “Conditioned avoidance” value in test [4] is “active”.

With `O=C1C2CC(C(=O)N1CCCCN1CCN(c3ncccn3)CC1)C1C2C2C3CC4C2C4C31` (centres unmarked) [Example 6, Decahydro-3-[4-[4-(2-pyrimidinyl)-1-piperazinyl]butyl]-1,5-methano-6,7,9-metheno-2H-pentaleno[1,2-d]azepine-2,4(3H)-dione], the inhibition in vivo at 40 mg/kg in test [1] is ~80%. Besides, the Ki on D-2 dopamine receptor was found to be 56 nM; in test [2] it was 0.23 nM. For the same compound, the ED50 in test [3] (setting [5]) was determined as 0.4 mg/kg; in test [4] it was 33.8 mg/kg. For the same compound, in test [3], the “Apomorphine antagonism ED50, stereotypy” value is “inactive”.

With `O=C1C2CC(C(=O)N1CCCCN1CCN(c3cncc(Cl)n3)CC1)C1C2C2C3CC4C2C4C31` (centres unmarked) [Example 7, Decahydro-3-[4-[4-(6-chloro-2-pyrazinyl)-1-piperazinyl]butyl]-1,5-methano-6,7,9-metheno-2H-pentaleno[1,2-d]azepine-2,4(3H)-dione], the inhibition in vivo at 40 mg/kg in test [1] is > 20%. On D-2 dopamine receptor, this compound yielded an inhibition at 1 µM of 54%. This compound returned an inhibitory constant (Ki) in test [2] of 6.95 nM. For the same compound, in test [3], the “Apomorphine antagonism ED50, climbing” value was “inactive” and the “Apomorphine antagonism ED50, stereotypy” value was “inactive”. For the same compound, the “Conditioned avoidance” value in test [4] is “inactive”.

`O=C1C2CC(C(=O)N1CCCCN1CCN(c3ncccn3)CC1)c1ccccc12` [Example 8, 2,3,4,5-Tetrahydro-3-[4-[4-(2-pyrimidinyl)-1-piperazinyl]butyl]-1,5-methano-1H-3-benzazepine-2,4(3H, 5H)-dione]: in test [1], the inhibition in vivo at 40 mg/kg was > 20%. This compound also gave an inhibition at 1 µM at D-2 dopamine receptor of 23%. This compound had an inhibition at 1 µM in test [2] of 89%. In test [3], the “Apomorphine antagonism ED50, climbing” value is “inactive” and the “Apomorphine antagonism ED50, stereotypy” value was “inactive”. The “Conditioned avoidance” value in test [4] is “inactive”.

`O=C1C2CC(C(=O)N1CCCCN1CCN(c3cncc(Cl)n3)CC1)c1ccccc12` [Example 9, 2,3,4,5-Tetrahydro-3-[4-[4-(6-chloro-2-pyrazinyl)-1-piperazinyl]butyl]-1,5-methano-1H-3-benzazepine-2,4(3H, 5H)-dione]: the inhibition in vivo at 40 mg/kg in test [1] is > 20%. For the same compound, the inhibition at 1 µM came out at 0% on D-2 dopamine receptor and 61% in test [2]. In test [3], the “Apomorphine antagonism ED50, stereotypy” value was “inactive”.

In the case of `COc1ccccc1N1CCN(CCCCN2C(=O)C3CC(C2=O)C2C3C3C4CC5C3C5C42)CC1` (centres unmarked) [Example 10, Decahydro-3-[4-[4-(2-methoxyphenyl)-1-piperazinyl]butyl]-1,5-methano-6,7,9-metheno-2H-pentaleno[1,2-d]azepine-2,4(3H)-dione], the inhibition in vivo at 40 mg/kg in test [1] was > 20%. Moreover, the Ki on D-2 dopamine receptor was 18 nM; in test [2] it was 0.29 nM. In addition, the ED50 is 4.71 mg/kg in test [3] (setting [5]) and 10 mg/kg in test [3] (setting [6]). Further, in test [4], the “Conditioned avoidance” value is “inactive”.

For the compound `O=C1C2CC(C(=O)N1CCCCN1CCN(c3cccc(C(F)(F)F)c3)CC1)C1CCCC21` (centres unmarked) [Example 11, Hexahydro-3-[4-[4-(3-trifluoromethylphenyl)-1-piperazinyl]butyl]-1,5-methano-cyclopent[d]azepine-2,4(1H, 3H)-dione], in test [1], the inhibition in vivo at 40 mg/kg was > 20%. Further, at 1 µM the inhibition on D-2 dopamine receptor was 100%. In test [2], this compound had a Ki of 2 nM. The figures for the ED50 in test [3] (setting [5]), in test [3] (setting [6]) and in test [4] were 18.9 mg/kg, 42.4 mg/kg and 46.2 mg/kg, respectively.

Consider `O=C1C2CC(C(=O)N1CCCCN1CCN(c3cccc(C(F)(F)F)c3)CC1)C1C2C2C3CC4C2C4C31` (centres unmarked) [Example 12, Decahydro-3-[4-[4-(3-trifluoromethylphenyl)-1-piperazinyl]butyl]-1,5-methano-6,7,9-metheno-2H-pentaleno[1,2-d]azepine-2,4(3H)-dione], for which the inhibition in vivo at 40 mg/kg in test [1] was < 20%. For the same compound, the Ki came to 30 nM on D-2 dopamine receptor and 0.2 nM in test [2]. The “Apomorphine antagonism ED50, climbing” value in test [3] is “inactive”. Also, the “Apomorphine antagonism ED50, stereotypy” value in test [3] is “inactive”.

`O=C1C2CC(C(=O)N1CCCCN1CCN(c3ccc4ccccc4n3)CC1)C1C2C2C3CC4C2C4C31` (centres unmarked) [Example 14, Decahydro-3-[4-[4-(2-quinolyl)-1-piperazinyl]butyl]-1,5-methano-6,7,9-methano-2H-pentaleno[1,2-d]azepine-2,4(3H)-dione]: the inhibition in vivo at 40 mg/kg in test [1] is ~20%. In addition, the inhibition at 1 µM on D-2 dopamine receptor stood at 45%; in test [2] it was 86%. In addition, in test [3] (setting [5]), the ED50 was determined as 44 mg/kg. Moreover, the “Apomorphine antagonism ED50, stereotypy” value in test [3] is “inactive”.

Take `O=C1CC2(CCCC2)CC(=O)N1CCCCN1CCN(c2ncccn2)CC1` [buspirone, reference compound]: the “Affinity for 5-HT1A serotonin receptor (in words)” value in test [2] ([3H] 8-OH DPAT displacement) is listed as “potent affinity”.

In the case of `CN(C)CCCN1c2ccccc2Sc2ccc(Cl)cc21` [chlorpromazine, reference compound], the “Ratio of the ED50 for stereotyped behavior to the ED50 for climbing” value in test [3] turned out to be 1.51.

Regarding `O=C(CCCN1CCC(O)(c2ccc(Cl)cc2)CC1)c1ccc(F)cc1` [haloperidol, reference compound], the “Ratio of the ED50 for stereotyped behavior to the ED50 for climbing” value in test [3] was 1.00.
